Assay results reported in patent EP4553080A1, “NUCLEOSIDE DERIVATIVES AS ANTIVIRAL AGENTS AGAINST CORONAVIRUSES” (Ustav Organicke Chemie a Biochemie AV CR, v.v.i., priority 2023, dated 2025).

biological target: nsp14 methyltransferase from SARS-CoV-2 (Severe acute respiratory syndrome coronavirus 2, UniProt P0DTD1); assay: Nsp14 MTase activity inhibition in vitro (EchoMS assay); format: biochemical; details: recombinant nsp14 protein expressed in E. coli; dose-response curve

SMILES | IC50
Nc1ncnc2c1ccn2[C@@H]1O[C@H](CSCc2cnsc2-c2ccccc2)[C@@H](O)[C@H]1O [Compound 103c, (2R,3R,4S,5S)-2-(4-Amino-7H-pyrrolo[2,3-d]pyrimidin-7-yl)-5-((((5-phenylisothlazol-4-yl)methyl)thio)methyl)tetrahydrofuran-3,4-diol] | 500 to 2000 nM
Nc1ncnc2c1ccn2[C@@H]1O[C@H](CSCc2[nH]cnc2-c2ccccc2)[C@@H](O)[C@H]1O [Compound 104c, (2R,3R,4S,5S)-2-(4-Amino-7H-pyrrolo[2,3-d]pyrimidin-7-yl)-5-((((4-phenyl-1H-imidazol-5-yl)methyl)thio)methyl)tetrahydrofuran-3,4-diol] | 500 to 2000 nM
Nc1ncnc2c1ccn2[C@@H]1O[C@H](CSCc2csnc2-c2ccccc2)[C@@H](O)[C@H]1O [Compound 105c, (2R,3R,4S,5S)-2-(4-Amino-7H-pyrrolo[2,3-d]pyrimidin-7-yl)-5-((((3-phenylisothiazol-4-yl)methyl)thio)methyl)tetrahydrofuran-3,4-diol] | 500 to 2000 nM
CCc1onc(-c2ccccc2)c1CSC[C@H]1O[C@@H](n2ccc3c(N)ncnc32)[C@H](O)[C@@H]1O [Compound 106c, (2R,3R,4S,5S)-2-(4-Amino-7H-pyrrolo[2,3-d]pyrimidin-7-yl)-5-((((5-ethyl-3-phenyllsoxazol-4-yl)methyl)thio)methyl)tetrahydrofuran-3,4-diol] | 100 to 500 nM
CC(C)c1onc(-c2ccccc2)c1CSC[C@H]1O[C@@H](n2ccc3c(N)ncnc32)[C@H](O)[C@@H]1O [Compound 107c, (2R,3R,4S,5S)-2-(4-Amino-7H-pyrrolo[2,3-d]pyrimidin-7-yl)-5-((((5-isopropyl-3-phenylisoxazol-4-yl)methyl)thio)methyl)tetrahydrofuran-3,4-diol] | 500 to 2000 nM
Nc1ncnc2c1ccn2[C@@H]1O[C@H](CSCc2c(-c3ccccc3)noc2C2CC2)[C@@H](O)[C@H]1O [Compound 108c, (2R,3R,4S,5S)-2-(4-Amino-7H-pyrrolo[2,3-d]pyrimidin-7-yl)-5-((((5-cyclopropyl-3-phenylisoxazol-4-yl)methyl)thio)methyl)tetrahydrofuran-3,4-diol] | 100 to 500 nM
Nc1ncnc2c1ccn2[C@@H]1O[C@H](CSCc2c(-c3ccccc3)noc2-c2ccccc2)[C@@H](O)[C@H]1O [Compound 109c, (2R,3R,4S,5S)-2-(4-Amino-7H-pyrrolo[2,3-d]pyrimidin-7-yl)-5-((((3,5-diphenylisoxazol-4-yl)methyl)thio)methyl)tetrahydrofuran-3,4-diol] | 100 to 500 nM
COc1ncnc(-c2ccccc2)c1CSC[C@H]1O[C@@H](n2ccc3c(N)ncnc32)[C@H](O)[C@@H]1O [Compound 110c, (2R,3R,4S,5S)-2-(4-Amino-7H-pyrrolo[2,3-d]pyrimidin-7-yl)-5-((((4-methoxy-6-phenylpyrimidin-5-yl)methyl)thio)methyl)tetrahydrofuran-3,4-diol] | 500 to 2000 nM
Cc1noc(-c2ccc(N)cc2)c1CSC[C@H]1O[C@@H](n2ccc3c(N)ncnc32)[C@H](O)[C@@H]1O [Compound 111, (2R,3R,4S,5S)-2-(4-Amino-7H-pyrrolo[2,3-d]pyrimidin-7-yl)-5-((((5-(4-aminophenyl)-3-methylisoxazol-4-yl)methyl)thio)methyl)tetrahydrofuran-3,4-diol] | 30 to 100 nM
COc1ccc(-c2nc(C)c(CSC[C@H]3O[C@@H](n4ccc5c(N)ncnc54)[C@H](O)[C@@H]3O)c(-c3ccccc3)n2)cc1OC [Compound 119c, (2R,3R,4S,5S)-2-(4-Amino-7H-pyrrolo[2,3-d]pyrimidin-7-yl)-5-((((2-(3,4-dimethoxyphenyl)-4-methyl-6-phenylpyrimidin-5-yl)methyl)thio)methyl)tetrahydrofuran-3,4-diol] | 30 to 100 nM
Cn1c(-c2ccccc2)nc(-c2ccccc2)c1CSC[C@H]1O[C@@H](n2ccc3c(N)ncnc32)[C@H](O)[C@@H]1O [Compound 120c, (2R,3R,4S,5S)-2-(4-Amino-7H-pyrrolo[2,3-d]pyrimidin-7-yl)-5-((((1-methyl-2,4-diphenyl-1H-imidazol-5-yl)methyl)thio)methyl)tetrahydrofuran-3,4-diol] | 30 to 100 nM
Cc1noc(-c2ccccc2)c1CSC[C@H]1O[C@@H](n2cc(I)c3c(N)ncnc32)[C@H](O)[C@@H]1O [Compound 123, (2R,3R,4S,5S)-2-(4-Amino-5-iodo-7H-pyrrolo[2,3-d]pyrimidin-7-yl)-5-((((3-methyl-5-phenylisoxazol-4-yl)methyl)thio)methyl)tetrahydrofuran-3,4-diol] | 30 to 100 nM
Cc1noc(-c2ccccc2)c1CSC[C@H]1O[C@@H](n2cc(F)c3c(N)ncnc32)[C@H](O)[C@@H]1O [Compound 128, (2R,3R,4S,5S)-2-(4-Amino-5-fluoro-7H-pyrrolo[2,3-d]pyrimidin-7-yl)-5-((((3-methyl-5-phenylisoxazol-4-yl)methyl)thio)methyl)tetrahydrofuran-3,4-diol] | 100 to 500 nM
Cc1noc(-c2ccccc2)c1CSC[C@H]1O[C@@H](n2cc(C(C)C)c3c(N)ncnc32)[C@H](O)[C@@H]1O [Compound 129b] | 100 to 500 nM
CCC(C)c1cn([C@@H]2O[C@H](CSCc3c(C)noc3-c3ccccc3)[C@@H](O)[C@H]2O)c2ncnc(N)c12 (stereo partly drawn) [Compound 130b, (2R,3R,4S,5S)-2-(4-Amino-5-(sec-butyl)-7H-pyrrolo[2,3-d]pyrimidin-7-yl)-5-((((3-methyl-5-phenylisoxazol-4-yl)methyl)thio)methyl)tetrahydrofuran-3,4-diol] | 100 to 500 nM
Cc1noc(-c2ccccc2)c1CSC[C@H]1O[C@@H](n2cc(CC(C)C)c3c(N)ncnc32)[C@H](O)[C@@H]1O [Compound 131b, (2R,3R,4S,5S)-2-(4-Amino-5-isobutyl-7H-pyrrolo[2,3-d]pyrimidin-7-yl)-5-((((3-methyl-5-phenylisoxazol-4-yl)methyl)thio)methyl)tetrahydrofuran-3,4-diol] | 100 to 500 nM
CCCCCc1cn([C@@H]2O[C@H](CSCc3c(C)noc3-c3ccccc3)[C@@H](O)[C@H]2O)c2ncnc(N)c12 [Compound 132b, (2R,3R,4S,5S)-2-(4-Amino-5-pentyl-7H-pyrrolo[2,3-d]pyrimidin-7-yl)-5-((((3-methyl-5-phenylisoxazol-4-yl)methyl)thio)methyl)tetrahydrofuran-3,4-diol] | 500 to 2000 nM
Cc1noc(-c2ccccc2)c1CSC[C@H]1O[C@@H](n2cc(C3CCCC3)c3c(N)ncnc32)[C@H](O)[C@@H]1O [Compound 133b, (2R,3R,4S,5S)-2-(4-Amino-5-cyclopentyl-7H-pyrrolo[2,3-d]pyrimidin-7-yl)-5-((((3-methyl-5-phenylisoxazol-4-yl)methyl)thio)methyl)tetrahydrofuran-3,4-diol] | 100 to 500 nM
Cc1noc(-c2ccccc2)c1CSC[C@H]1O[C@@H](n2cc(C3CCCCC3)c3c(N)ncnc32)[C@H](O)[C@@H]1O [Compound 134b, (2R,3R,4S,5S)-2-(4-Amino-5-cyclohexyl-7H-pyrrolo[2,3-d]pyrimidin-7-yl)-5-((((3-methyl-5-phenylisoxazol-4-yl)methyl)thio)methyl)tetrahydrofuran-3,4-diol] | 100 to 500 nM
Cc1noc(-c2ccccc2)c1CSC[C@H]1O[C@@H](n2cc(CC3CCCCC3)c3c(N)ncnc32)[C@H](O)[C@@H]1O [Compound 135b, (2R,3R,4S,5S)-2-(4-Amino-5-(cyclohexylmethyl)-7H-pyrrolo[2,3-d]pyrimidin-7-yl)-5-((((3-methyl-5-phenylisoxazol-4-yl)methyl)thio)methyl)tetrahydrofuran-3,4-diol] | 500 to 2000 nM
Cc1noc(-c2ccccc2)c1CSC[C@H]1O[C@@H](n2cc(CCCC#N)c3c(N)ncnc32)[C@H](O)[C@@H]1O [Compound 137b, 4-(4-Amino-7-((2R,3R,4S,5S)-3,4-dihydroxy-5-((((3-methyl-5-phenylisoxazol-4-yl)methyl)thio)methyl)tetrahydrofuran-2-yl)-7H-pyrrolo[2,3-d]pyrimidin-5-yl)butanenitrile] | 10 to 30 nM
Cc1noc(-c2ccccc2)c1CSC[C@H]1O[C@@H](n2cc(C#N)c3c(N)ncnc32)[C@H](O)[C@@H]1O [Compound 138b, 4-Amino-7-((2R,3R,4S,5S)-3,4-dihydroxy-5-((((3-methyl-5-phenylisoxazol-4-yl)methyl)thio)methyl)tetrahydrofuran-2-yl)-7H-pyrrolo[2,3-d]pyrimidine-5-carbonitrile] | 30 to 100 nM
C=Cc1cn([C@@H]2O[C@H](CSCc3c(C)noc3-c3ccccc3)[C@@H](O)[C@H]2O)c2ncnc(N)c12 [Compound 139b, (2R,3R,4S,5S)-2-(4-Amino-5-vinyl-7H-pyrrolo[2,3-d]pyrimidin-7-yl)-5-((((3-methyl-5-phenylisoxazol-4-yl)methyl)thio)methyl)tetrahydrofuran-3,4-diol] | 500 to 2000 nM
C#Cc1cn([C@@H]2O[C@H](CSCc3c(C)noc3-c3ccccc3)[C@@H](O)[C@H]2O)c2ncnc(N)c12 [Compound 140b, (2R,3R,4S,5S)-2-(4-Amino-5-ethynyl-7H-pyrrolo[2,3-d]pyrimidin-7-yl)-5-((((3-methyl-5-phenylisoxazol-4-yl)methyl)thio)methyl)tetrahydrofuran-3,4-diol] | 30 to 100 nM
Cc1noc(-c2ccccc2)c1CSC[C@H]1O[C@@H](n2cc(C3=CCC(C#N)CC3)c3c(N)ncnc32)[C@H](O)[C@@H]1O (stereo partly drawn) [Compound 141b, 4-(4-Amino-7-((2R,3R,4S,5S)-3,4-dihydroxy-5-((((3-methyl-5-phenyhsoxazol-4-yl)methyl)thio)methyl)tetrahydrofuran-2-yl)-7H-pyrrolo[2,3-d]pyrimidin-5-yl)cyclohex-3-ene-1-carbonitrile] | 10 to 30 nM
CCc1cn([C@@H]2O[C@H](CSCc3c(C)noc3-c3ccccc3)[C@@H](O)[C@H]2O)c2ncnc(N)c12 [Compound 142, (2R,3R,4S,5S)-2-(4-Amino-5-ethyl-7H-pyrrolo[2,3-d]pyrimidin-7-yl)-5-((((3-methyl-5-phenylisoxazol-4-yl)methyl)thio)methyl)tetrahydrofuran-3,4-diol] | 30 to 100 nM
Cc1noc(-c2ccccc2)c1CSC[C@H]1O[C@@H](n2cc(-c3ccc(C#N)cc3)c3c(N)ncnc32)[C@H](O)[C@@H]1O [Compound 143b, 4-(4-Amino-7-((2R,3R,4S,5S)-3,4-dihydroxy-5-((((3-methyl-5-phenylisoxazol-4-yl)methyl)thio)methyl)tetrahydrofuran-2-yl)-7H-pyrrolo[2,3-d]pyrimidin-5-yl)benzonitrile] | 10 to 30 nM
